# From patent US20160113904A1, “SKIN CARE PRODUCTS COMPRISING SUBSTITUTED HYDROXYPROLINE WITH UNSATURATED FATTY ACIDS DERIVATIVES” (MEDWELL LABORATORIES LTD., priority 2013, published 2016)
# Entries after “also recorded” stand apart in the source; their conditions may differ.
# Legend:
# Format in all cases: in vivo, human
# [1] = system: volunteers with Atopic dermatitis; experiment: Atopic dermatitis trial: study director's evaluation of skin condition
# Protocol: (§1) In Examples 1-3 an emulsion type O/W Creams of MWL-001 (2.5% and 5% w/w) was prepared using Emulgade® SE emulsifiers (glyceryl stearate), Ceteareth-20, cetearyl alcohol, cetyl palmitate, cetearyl alcohol-Lanette®, isopropyl myristate, caprilic/capric acid triglycerides (Myritol®318), strearic acid, a Trietanolamine and purified water, according to Ph Eur 6.0.
# Ten volunteers aged 2-30 years participated in the trial. Four females and six males.
# Volunteers were instructed to apply the product only on one side of the body, on the worst affected area, while the other side was defined as the control area and was not treated. The tested material, a body lotion product, was applied 1-3 times a day for a period of 4 weeks.
# Each volunteer was examined at baseline (T0), after one week (T1) and after 2 weeks of using the product (T2). The investigator rated the condition of the skin according to the parameters of the size of the affected area, dryness, scale, redness, edema, lichenification and pruritus. Both the treated and the Control areas were documented with color photographs at T0, T1 and T2.
# The following parameters were evaluated: • a. Lesion area • b. Dryness • c. Scales • d. Redness • e. Edema • f. Lichenificalion
# The parameters mentioned above were evaluated on a scale of 0 to 5 by the study director. • 0=None • 1=Slight • 2=Moderate • 3=Severe • 4=Extreme • 5=Very Extreme
# A statistical comparison between T0 and the other two time-points (T1 and T2) and between the treated and the Control areas were made according to the Wilcoxon signed-ranks test, while p<0.05 indicated a significant difference
# All parameters were assessed in a scale of 0-5 where 0=none and 5=very extreme. The percentage of change was calculated at T1 and T2.
# [2] = system: volunteers with psoriasis; experiment: Psoriasis trial: study director's evaluation of lesions; details: for Redness level / Scale level / Thickness of the Skin / Infected area size: treated area
# Protocol: as §1
# (§2) Fifteen volunteers aged 29-73 with psoriasis.
# The volunteers were instructed to use the cream at least once a day, for 4 weeks.
# (§3) Volunteers were instructed to apply the product only on one side of the body, on the worst affected area at least once a day, for 4 weeks, while the other side was defined as the control area and was not treated.
# Each volunteer was examined at baseline (T0), after two weeks (T1) and after 4 weeks of using the product (T2). The study Director rated the state of the skin according to the parameters of scales severity, thickness of the plaque, redness and the size of the lesions. Erythema level was documented at each time point.
# The following parameters were evaluated:
# a) Size of lesion b) Thickness of lesion
# The parameters mentioned above were evaluated on a scale of 0 to 5 by the study director.
# (§4) A statistical comparison between T0 and the other two time-points (T1 and T2) and between the treated and the Control areas were made by paired sample t-test, while p<0.05 indicated a significant difference
# The results of 15 volunteers at each time point are presented in the Tables below and in the relevant Figures. All parameters were assessed in a scale of 0-5 where 0=none and 5=very extreme
# [3] = system: volunteers with psoriasis; experiment: Psoriasis trial: erythema level by Mexameter; details: treated area
# Protocol: as §2, §3
# Erythema level was evaluated by Mexameter, Courage & Khazaka, CK. The probe of the Mexameter was placed on the skin at a constant pressure find measurements of skin hydration were taken. Skin erythema level was recorded at baseline, after 2 weeks and after 4 weeks of treatment.
# as §4
# [4] = system: volunteers with psoriasis; experiment: Psoriasis trial: side effects; details: topical use for 4 weeks
# From the text: The participants were asked to keep a record of daily applications and to note any side effects resulting from product application.
# Volunteers were asked to keep a record and report any side effects, such as dryness, burning sensation, peeling of the skin, redness or any other visible changes, and report immediately to study director.
# [5] = system: healthy female volunteers, facial skin; experiment: Anti wrinkle test: hydration level by Corneometer; details: face, treated area
# Protocol: Ten healthy female volunteers were included and completed the study.
# Moisture level of the skin (corneometry) and TEWL (Trans Epidermal Water Loss) were measured at each time point.
# A cosmetic anti wrinkle product MW-001 was applied on half of the face for four weeks by each volunteer while the other half served as a control, without any product application during the whole test period.
# Hydration level was evaluated by Corneometer, Courage & Khazaka, CK. The probe of the corneometer was placed on the skin at a constant pressure and measurements of skin hydration were taken. Skin hydration was recorded at T0, T1 and T2. Each measurement was repeated three times, and the average of the repeated measurements was calculated and assembled in the test results. The room temperature and humidity were kept constant.
# The corneometry results are provided in arbitrary units.
# [6] = after 2 weeks of treatment, both sides
# [7] = treated area, T0 baseline, scale 0-5
# [8] = treated area, T1 after one week, scale 0-5
# [9] = treated area, T2 after two weeks, scale 0-5
# [10] = treated area, after 1 week of treatment
# [11] = treatment area, after 4 weeks, p<0.05
compound,measurement,setting,value
CCC=CCC=CCC=CCC=CCC=CCC=CCCC(=O)N1CC(O)CC1C(=O)O (stereo in doubt) [MW-001],"Scale level, statistical analysis of change","[1]; after 1 and 2 weeks of treatment, only at the treated area",decreased significantly
same,"Dryness level, statistical analysis of change",[1]; [6],decreased significantly
same,"Redness level, statistical analysis of change",[1]; [6],decreased significantly
same,"Lichenification level, statistical analysis of change","[1]; after 2 weeks of treatment, only at the treated area",decreased significantly
same,Overall efficacy conclusion,[1]; atopic dermatitis,very efficient in the treatment of atopic dermatitis
same,Dryness level,[1]; [7],4.1
same,Lichenification level,[1]; [7],2.8
same,Redness level,[1]; [7],3.9
same,Scale level,[1]; [7],2.6
same,Infected area size,"[1]; treated area, T0 baseline, scale 0-5, 10 volunteers",4.3
same,Dryness level,[1]; [8],1.8
same,Infected area size,[1]; [8],3.2
same,Lichenification level,[1]; [8],2.0
same,Redness level,[1]; [8],2.4
same,Scale level,[1]; [8],1.3
same,Dryness level,[1]; [9],1.1
same,Infected area size,[1]; [9],2.2
same,Lichenification level,[1]; [9],1.3
same,Redness level,[1]; [9],2.3
same,Scale level,[1]; [9],0.9
same,"Dryness level, statistical analysis of change",[1]; [10],decreased significantly
same,"Redness level, statistical analysis of change",[1]; [10],decreased significantly
same,"Infected area size, statistical analysis of change","[1]; treated area, after 2 weeks of treatment, p<0.05, Wilcoxon",diminished significantly
same,Overall efficacy conclusion,[2],efficient in the treatment of psoriasis
same,"Lesion area size, statistical analysis of decrease",[2]; after 4 weeks of application,insignificant
same,"Scale parameter, treatment side versus control side",[2]; after both 2 weeks (T1) and 4 weeks (T2),Significant differences
same,"Redness parameter, statistical analysis of change","[2]; any of the sides, whole study period, p>0.05",No significant change
same,Redness level,"[2]; T0 baseline, scale 0-5",3.3
same,Scale level,"[2]; T0 baseline, scale 0-5",4.5
same,Thickness of the Skin,"[2]; T0 baseline, scale 0-5",3.0
same,Infected area size,"[2]; T0 baseline, scale 0-5, 15 volunteers",4.1
same,Infected area size,"[2]; T1 after two weeks, scale 0-5",3.8
same,Redness level,"[2]; T1 after two weeks, scale 0-5",3.5
same,Scale level,"[2]; T1 after two weeks, scale 0-5",4.1
same,Thickness of the Skin,"[2]; T1 after two weeks, scale 0-5",2.6
same,Infected area size,"[2]; T2 after four weeks, scale 0-5",3.9
same,Redness level,"[2]; T2 after four weeks, scale 0-5",3.2
same,Scale level,"[2]; T2 after four weeks, scale 0-5",3.8
same,Thickness of the Skin,"[2]; T2 after four weeks, scale 0-5",2.4
same,"Lesion area size, statistical analysis of change","[2]; treatment area, after 2 weeks of application",significant decrease
same,"Scales parameter, statistical analysis of change",[2]; [11],significant improvement
same,"Thickness parameter, statistical analysis of change",[2]; [11],significant improvement
same,Erythema level,[3]; T0 baseline,562.1
same,Erythema level,[3]; T1 after two weeks,517.5
same,Erythema level,[3]; T2 after four weeks,576.7
same,Side effects / safety,[4],No side effects were observed; also recorded: safe for use
same,Average hydration level,[5]; T0 baseline,60.9 arbitrary units
same,Average hydration level,[5]; T1 after 2 weeks of use,53.4 arbitrary units
same,Average hydration level,[5]; T2 after 4 weeks of use,53.5 arbitrary units
